Where two headings read alike, the source gives them in different places.
Columns and labels:
[1] = system: Puccinia triticina; synonym: Puccinia recondita f. sp. tritici (PUCCRT); assay: Wheat brown rust (PUCCRT) whole-plant fungicidal test; type: in vivo; conditions: topical; for pest or weed control at 121.5 g/ha: low volume (track spray) application, 121.5 g/H; for pest or weed control at 100 ppm: high volume application
[2] = system: Mycosphaerella graminicola; anamorph: Septoria tritici (SEPTTR); assay: Leaf blotch of wheat (SEPTTR) whole-plant fungicidal test; type: in vivo; conditions: Zymoseptoria tritici, topical; for pest or weed control at 121.5 g/ha: low volume (track spray) application, 121.5 g/H; for pest or weed control at 100 ppm: high volume application
[3] = 24 h, 1 Day Protectant, read-out: Low Volume activity at 121.5 g/H PUCCRT 1DP (% disease control rating)
[4] = 72 h, 3 Day Curative, read-out: Low Volume activity at 121.5 g/H PUCCRT 3DC (% disease control rating)
[5] = 24 h, 1 Day Protectant, read-out: Low Volume activity at 121.5 g/H SEPTTR 1DP (% disease control rating)
[6] = 72 h, 3 Day Curative, read-out: Low Volume activity at 121.5 g/H SEPTTR 3DC (% disease control rating)
[7] = 24 h, 1 Day Protectant, read-out: High Volume activity at 100 ppm PUCCRT 1DP (% disease control rating)
[8] = 72 h, 3 Day Curative, read-out: High Volume activity at 100 ppm PUCCRT 3DC (% disease control rating)
[9] = 24 h, 1 Day Protectant, read-out: High Volume activity at 100 ppm SEPTTR 1DP (% disease control rating)
[10] = 72 h, 3 Day Curative, read-out: High Volume activity at 100 ppm SEPTTR 3DC (% disease control rating)

| melting point [°C] | Compound | pest or weed control at 121.5 g/ha [1, 3] [%] | pest or weed control at 121.5 g/ha [1, 4] [%] | pest or weed control at 121.5 g/ha [2, 5] [%] | pest or weed control at 121.5 g/ha [2, 6] [%] | pest or weed control at 100 ppm [1, 7] [%] | pest or weed control at 100 ppm [1, 8] [%] | pest or weed control at 100 ppm [2, 9] [%] | pest or weed control at 100 ppm [2, 10] [%] |
| --- | --- | --- | --- | --- | --- | --- | --- | --- | --- |
| 227 to 232 | C[C@@H]1OC(=O)[C@@H](N)CCC[C@H](CCCc2ccccc2)[C@H]1Cc1ccc(OC(F)(F)F)cc1.Cl |  |  |  |  |  |  |  |  |
| 215 to 217 | C[C@@H]1OC(=O)[C@@H](N)CCC[C@H](Cc2ccc(C(F)(F)F)cc2)[C@H]1Cc1ccc(OC(F)(F)F)cc1.Cl |  |  |  |  |  |  |  |  |
|  | CCOCC(=O)OCOc1c(OC)ccnc1C(=O)N[C@H]1CCC[C@H](Cc2ccc(C(F)(F)F)cc2)[C@@H](Cc2ccc(OC(F)(F)F)cc2)[C@H](C)OC1=O [Compound 66] | < 70 | < 70 | < 70 | < 70 |  |  |  |  |
|  | COc1ccnc(C(=O)N[C@H]2CCC[C@H](Cc3ccc(C(F)(F)F)cc3)[C@@H](Cc3ccc(OC(F)(F)F)cc3)[C@H](C)OC2=O)c1OC(C)=O [Compound 67] | < 70 | < 70 | < 70 | < 70 |  |  |  |  |
|  | COc1ccnc(C(=O)N[C@H]2CCC[C@H](Cc3ccccc3)[C@@H](Cc3ccc(OC(F)(F)F)cc3)[C@H](C)OC2=O)c1OCOC(C)=O [Compound 68] | < 70 | < 70 | < 70 | < 70 |  |  |  |  |
|  | CCOCC(=O)OCOc1c(OC)ccnc1C(=O)N[C@H]1CCC[C@H](Cc2ccccc2)[C@@H](Cc2ccc(OC(F)(F)F)cc2)[C@H](C)OC1=O [Compound 69] | < 70 | < 70 | > 70 | < 70 |  |  |  |  |
|  | COc1ccnc(C(=O)N[C@H]2CCC[C@H](CCCc3ccccc3)[C@@H](Cc3ccccc3)[C@H](C)OC2=O)c1OCOC(C)=O [Compound 70] | > 70 | < 70 | > 70 | > 70 |  |  |  |  |
|  | CCCC[C@@H]1[C@@H](Cc2ccccc2)CCC[C@H](NC(=O)c2nccc(OC)c2O)C(=O)O[C@H]1C [Compound 71, N-((3S,7R,8R,9S)-7-benzyl-8-butyl-9-methyl-2-oxooxonan-3-yl)-3-hydroxy-4-methoxypicolinamide] |  |  |  |  | > 70 | > 70 | > 70 | < 70 |
|  | CCCC[C@@H]1[C@@H](Cc2ccc(C(F)(F)F)cc2)CCC[C@H](NC(=O)c2nccc(OC)c2O)C(=O)O[C@H]1C [Compound 72] |  |  |  |  | > 70 | < 70 | > 70 | < 70 |
|  | COc1ccnc(C(=O)N[C@H]2CCC[C@H](CCC(C)C)[C@@H](Cc3ccccc3)[C@H](C)OC2=O)c1O [Compound 73] |  |  |  |  | > 70 | < 70 | > 70 | > 70 |
|  | COc1ccnc(C(=O)N[C@H]2CCC[C@H](Cc3ccccc3)[C@@H](Cc3ccccc3)[C@H](C)OC2=O)c1O [Compound 74] |  |  |  |  | > 70 | > 70 | > 70 | > 70 |
|  | COc1ccnc(C(=O)N[C@H]2CCC[C@H](Cc3ccccc3)[C@@H](C3CCCC3)[C@H](C)OC2=O)c1O [Compound 75] |  |  |  |  | > 70 | < 70 | > 70 | > 70 |
|  | COc1ccnc(C(=O)N[C@H]2CCC[C@H](Cc3ccc(Cl)cc3)[C@@H](CC(C)C)[C@H](C)OC2=O)c1O [Compound 76] |  |  |  |  | > 70 | < 70 | > 70 | > 70 |
|  | COc1ccnc(C(=O)N[C@H]2CCC[C@H](Cc3ccccc3)[C@@H](CCc3ccccc3)[C@H](C)OC2=O)c1O [Compound 78] |  |  |  |  | > 70 | < 70 | > 70 | > 70 |
|  | COc1ccnc(C(=O)N[C@H]2CCC[C@H](Cc3ccc(Cl)cc3)[C@@H](Cc3ccccc3)[C@H](C)OC2=O)c1O [Compound 79] |  |  |  |  | > 70 | < 70 | > 70 | < 70 |
|  | COc1ccnc(C(=O)N[C@H]2CCC[C@H](Cc3ccc(C(F)(F)F)cc3)[C@@H](CC(C)C)[C@H](C)OC2=O)c1O [Compound 80] |  |  |  |  | > 70 | < 70 | > 70 | < 70 |

| melting point [°C] | Compound | pest or weed control at 121.5 g/ha [1, 3] [%] | pest or weed control at 121.5 g/ha [1, 4] [%] | pest or weed control at 121.5 g/ha [2, 5] [%] | pest or weed control at 121.5 g/ha [2, 6] [%] | pest or weed control at 100 ppm [1, 7] [%] | pest or weed control at 100 ppm [1, 8] [%] | pest or weed control at 100 ppm [2, 9] [%] | pest or weed control at 100 ppm [2, 10] [%] |
| --- | --- | --- | --- | --- | --- | --- | --- | --- | --- |
|  | COc1ccnc(C(=O)N[C@H]2CCC[C@H](Cc3ccc(C(F)(F)F)cc3)[C@@H](Cc3ccccc3)[C@H](C)OC2=O)c1O [Compound 81] |  |  |  |  | > 70 | < 70 | > 70 | < 70 |
|  | CCC[C@H]1CCC[C@H](NC(=O)c2nccc(OC)c2O)C(=O)O[C@@H](C)[C@@H]1Cc1ccccc1 [Compound 82] |  |  |  |  | > 70 | > 70 | < 70 | > 70 |
|  | COc1ccnc(C(=O)N[C@H]2CCC[C@H](CCC(C)C)[C@@H](CCc3ccccc3)[C@H](C)OC2=O)c1O [Compound 83] |  |  |  |  | > 70 | < 70 | > 70 | < 70 |
|  | COc1ccnc(C(=O)N[C@H]2CCC[C@H](Cc3ccc(Cl)cc3)[C@@H](C3CCCC3)[C@H](C)OC2=O)c1O [Compound 84] |  |  |  |  | > 70 | < 70 | > 70 | > 70 |
|  | COc1ccnc(C(=O)N[C@H]2CCC[C@H](CCCc3ccccc3)[C@@H](CCc3ccccc3)[C@H](C)OC2=O)c1O [Compound 85] |  |  |  |  | > 70 | < 70 | > 70 | < 70 |
|  | COc1ccnc(C(=O)N[C@H]2CCC[C@H](Cc3ccc(C(F)(F)F)cc3)[C@@H](Cc3ccc(F)cc3)[C@H](C)OC2=O)c1O [Compound 86] |  |  |  |  | > 70 | < 70 | < 70 | < 70 |
|  | COc1ccnc(C(=O)N[C@H]2CCC[C@H](CCC(C)C)[C@@H](C3CCCC3)[C@H](C)OC2=O)c1O [Compound 87] |  |  |  |  | > 70 | < 70 | > 70 | < 70 |
|  | COc1ccnc(C(=O)N[C@H]2CCC[C@H](Cc3ccccc3)[C@@H](CCC(C)C)[C@H](C)OC2=O)c1O [Compound 88] |  |  |  |  | > 70 | < 70 | < 70 | > 70 |
|  | COc1ccnc(C(=O)N[C@H]2CCC[C@H](Cc3ccccc3)[C@@H](c3ccccc3)[C@H](C)OC2=O)c1O [Compound 90] |  |  |  |  | > 70 | > 70 | > 70 | > 70 |
|  | CCC[C@H]1CCC[C@H](NC(=O)c2nccc(OC)c2O)C(=O)O[C@@H](C)[C@@H]1c1ccccc1 [Compound 91] |  |  |  |  | > 70 | < 70 | > 70 | > 70 |
|  | COc1ccnc(C(=O)N[C@H]2CCC[C@H](CCCc3ccccc3)[C@@H](CC(C)C)[C@H](C)OC2=O)c1O [Compound 92] |  |  |  |  | > 70 | < 70 | > 70 | < 70 |
|  | COc1ccnc(C(=O)N[C@H]2CCC[C@H](CC3CC3)[C@@H](Cc3ccccc3)[C@H](C)OC2=O)c1O [Compound 94] | > 70 | < 70 | > 70 | > 70 |  |  |  |  |
|  | COc1ccnc(C(=O)N[C@H]2CCC[C@H](Cc3ccccc3)[C@@H](Cc3ccc(F)cc3)[C@H](C)OC2=O)c1O [Compound 95] | > 70 | < 70 | > 70 | > 70 |  |  |  |  |
|  | COc1ccnc(C(=O)N[C@H]2CCC[C@H](Cc3ccc(C(F)(F)F)cc3)[C@@H](Cc3ccc(OC(F)(F)F)cc3)[C@H](C)OC2=O)c1O [Compound 96] |  |  |  |  | < 70 | < 70 | < 70 | < 70 |
|  | COc1ccnc(C(=O)N[C@H]2CCC[C@H](Cc3ccccc3)[C@@H](Cc3ccc(OC(F)(F)F)cc3)[C@H](C)OC2=O)c1O [Compound 97] |  |  |  |  | > 70 | < 70 | > 70 | < 70 |
|  | COc1ccnc(C(=O)N[C@H]2CCC[C@H](CCCc3ccccc3)[C@@H](Cc3ccccc3)[C@H](C)OC2=O)c1O [Compound 98] |  |  |  |  | > 70 | < 70 | > 70 | > 70 |

From US20150322051A1, “Macrocyclic picolinamides as fungicides” (Dow AgroSciences LLC, priority 2014, published 2015)
